Experimental data: ChEMBL document CHEMBL1201862, “PubChem BioAssay data set” (2004)
Calls of active or inactive are those of the source.

Assays:
[1] = biological target: T1, Tyrosine-protein phosphatase non-receptor type 7 (Homo sapiens, UniProt P35236); test: HePTP (PTPN7) phosphatase inhibitor potency, SAR follow-up, biochemical, set 2 (AID 449736); type: functional
T1 sequence (P35236 whole entry): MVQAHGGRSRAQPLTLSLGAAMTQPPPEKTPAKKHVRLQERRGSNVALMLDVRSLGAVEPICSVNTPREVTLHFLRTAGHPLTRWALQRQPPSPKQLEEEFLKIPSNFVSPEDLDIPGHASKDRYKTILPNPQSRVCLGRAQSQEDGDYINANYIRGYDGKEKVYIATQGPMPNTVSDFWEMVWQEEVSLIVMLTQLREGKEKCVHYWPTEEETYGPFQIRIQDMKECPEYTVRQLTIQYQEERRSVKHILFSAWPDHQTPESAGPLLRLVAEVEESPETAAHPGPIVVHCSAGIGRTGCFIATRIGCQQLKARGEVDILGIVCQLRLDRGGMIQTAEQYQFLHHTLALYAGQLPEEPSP

[2] = biological target: T2, Hexokinase HKDC1 (Homo sapiens, UniProt Q2TB90); test: HKDC1 hexokinase activators, dose response, biochemical, W721R variant (AID 504730); type: functional
T2 sequence (Q2TB90 whole entry): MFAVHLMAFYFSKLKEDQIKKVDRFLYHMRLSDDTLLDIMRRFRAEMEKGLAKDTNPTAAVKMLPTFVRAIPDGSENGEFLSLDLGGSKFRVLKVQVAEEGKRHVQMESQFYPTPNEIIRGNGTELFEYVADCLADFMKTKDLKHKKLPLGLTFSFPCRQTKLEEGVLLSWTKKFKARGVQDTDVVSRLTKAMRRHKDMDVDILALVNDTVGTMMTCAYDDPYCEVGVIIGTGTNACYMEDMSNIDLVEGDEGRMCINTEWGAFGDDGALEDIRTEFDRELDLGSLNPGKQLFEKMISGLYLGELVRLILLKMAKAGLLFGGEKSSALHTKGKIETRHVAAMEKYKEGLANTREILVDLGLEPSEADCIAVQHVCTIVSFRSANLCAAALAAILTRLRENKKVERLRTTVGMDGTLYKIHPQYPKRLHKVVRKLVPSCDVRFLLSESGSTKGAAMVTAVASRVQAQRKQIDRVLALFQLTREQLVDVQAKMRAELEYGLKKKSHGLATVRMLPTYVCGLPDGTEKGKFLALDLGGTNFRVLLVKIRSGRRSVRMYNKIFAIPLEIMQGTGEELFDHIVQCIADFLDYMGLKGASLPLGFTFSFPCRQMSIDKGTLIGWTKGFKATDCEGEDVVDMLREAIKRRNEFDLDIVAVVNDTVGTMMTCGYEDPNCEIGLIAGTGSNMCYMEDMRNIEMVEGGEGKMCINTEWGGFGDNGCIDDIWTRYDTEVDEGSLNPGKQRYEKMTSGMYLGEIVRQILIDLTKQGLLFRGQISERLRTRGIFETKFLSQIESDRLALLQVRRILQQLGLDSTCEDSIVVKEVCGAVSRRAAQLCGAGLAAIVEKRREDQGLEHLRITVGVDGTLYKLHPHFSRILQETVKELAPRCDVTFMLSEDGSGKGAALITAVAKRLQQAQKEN

[3] = biological target: T3, Hexokinase-1 (Homo sapiens, UniProt P19367); test: hexokinase 1 activators, dose response, selectivity assay for HKDC1 activator project, biochemical (AID 504762); type: functional
T3 sequence (P19367 whole entry): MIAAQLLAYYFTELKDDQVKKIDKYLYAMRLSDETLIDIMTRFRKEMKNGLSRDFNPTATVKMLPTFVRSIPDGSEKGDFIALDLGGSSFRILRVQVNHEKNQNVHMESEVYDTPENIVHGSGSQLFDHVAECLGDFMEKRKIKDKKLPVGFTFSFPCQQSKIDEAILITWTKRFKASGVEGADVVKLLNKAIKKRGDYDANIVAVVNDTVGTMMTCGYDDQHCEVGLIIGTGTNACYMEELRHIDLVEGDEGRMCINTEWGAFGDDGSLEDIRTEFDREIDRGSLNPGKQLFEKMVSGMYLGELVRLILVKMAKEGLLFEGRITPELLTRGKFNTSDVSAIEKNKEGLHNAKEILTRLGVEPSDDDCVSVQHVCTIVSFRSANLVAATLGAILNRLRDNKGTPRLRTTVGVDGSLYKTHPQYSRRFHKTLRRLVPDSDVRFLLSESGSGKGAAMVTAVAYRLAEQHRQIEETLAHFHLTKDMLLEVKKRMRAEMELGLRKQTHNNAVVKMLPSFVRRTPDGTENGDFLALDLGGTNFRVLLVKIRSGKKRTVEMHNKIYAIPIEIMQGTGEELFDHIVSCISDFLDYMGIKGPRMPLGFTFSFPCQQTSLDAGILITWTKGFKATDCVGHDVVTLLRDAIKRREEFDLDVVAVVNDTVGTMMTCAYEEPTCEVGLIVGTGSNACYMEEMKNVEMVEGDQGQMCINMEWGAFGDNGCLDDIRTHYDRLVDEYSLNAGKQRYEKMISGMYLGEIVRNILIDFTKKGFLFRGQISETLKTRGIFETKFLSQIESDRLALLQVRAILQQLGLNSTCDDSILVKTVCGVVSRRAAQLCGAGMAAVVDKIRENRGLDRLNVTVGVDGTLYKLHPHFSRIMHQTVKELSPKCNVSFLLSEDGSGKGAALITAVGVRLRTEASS

[4] = biological target: DNA dC->dU-editing enzyme APOBEC-3A (Homo sapiens, UniProt P31941); test: Dose Response confirmation of small molecule APOBEC3A DNA Deaminase Inhibitors via a fluorescence-based single-stranded DNA deaminase assay. [Related pubchem assays (depositor defined):AID493011, AID493024]; type: functional
[5] = biological target: DNA dC->dU-editing enzyme APOBEC-3G (Homo sapiens, UniProt Q9HC16); type: functional;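 also: Dose-response counterscreen measuring inhibition of APOBEC3G DNA deaminase activity, run while confirming APOBEC3A inhibitors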
Sequence of DNA dC->dU-editing enzyme APOBEC-3G (Q9HC16 whole entry): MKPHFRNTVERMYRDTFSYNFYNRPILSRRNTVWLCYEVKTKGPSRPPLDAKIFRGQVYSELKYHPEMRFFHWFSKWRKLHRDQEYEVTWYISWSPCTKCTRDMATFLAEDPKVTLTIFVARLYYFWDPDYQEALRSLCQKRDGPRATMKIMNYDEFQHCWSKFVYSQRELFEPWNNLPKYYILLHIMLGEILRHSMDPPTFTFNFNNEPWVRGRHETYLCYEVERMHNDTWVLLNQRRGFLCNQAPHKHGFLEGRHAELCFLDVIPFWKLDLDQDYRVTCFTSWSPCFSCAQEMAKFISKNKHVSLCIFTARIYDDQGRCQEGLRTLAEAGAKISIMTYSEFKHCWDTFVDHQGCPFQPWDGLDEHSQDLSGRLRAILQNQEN

[6] = system: Vero; test: Vero cell cytotoxicity, cytotoxicity control for flavivirus capping enzyme inhibitors (AID 588742); type: functional; conditions: Chlorocebus sabaeus
[7] = biological target: Genome polyprotein (dengue virus type 2, UniProt P29990); test: Dengue-2 NS5 methyltransferase inhibitors, primary screen, biochemical, confirmation dose response (AID 588689); type: functional
Sequence of Genome polyprotein (P29990 2492-3391 limits assumed): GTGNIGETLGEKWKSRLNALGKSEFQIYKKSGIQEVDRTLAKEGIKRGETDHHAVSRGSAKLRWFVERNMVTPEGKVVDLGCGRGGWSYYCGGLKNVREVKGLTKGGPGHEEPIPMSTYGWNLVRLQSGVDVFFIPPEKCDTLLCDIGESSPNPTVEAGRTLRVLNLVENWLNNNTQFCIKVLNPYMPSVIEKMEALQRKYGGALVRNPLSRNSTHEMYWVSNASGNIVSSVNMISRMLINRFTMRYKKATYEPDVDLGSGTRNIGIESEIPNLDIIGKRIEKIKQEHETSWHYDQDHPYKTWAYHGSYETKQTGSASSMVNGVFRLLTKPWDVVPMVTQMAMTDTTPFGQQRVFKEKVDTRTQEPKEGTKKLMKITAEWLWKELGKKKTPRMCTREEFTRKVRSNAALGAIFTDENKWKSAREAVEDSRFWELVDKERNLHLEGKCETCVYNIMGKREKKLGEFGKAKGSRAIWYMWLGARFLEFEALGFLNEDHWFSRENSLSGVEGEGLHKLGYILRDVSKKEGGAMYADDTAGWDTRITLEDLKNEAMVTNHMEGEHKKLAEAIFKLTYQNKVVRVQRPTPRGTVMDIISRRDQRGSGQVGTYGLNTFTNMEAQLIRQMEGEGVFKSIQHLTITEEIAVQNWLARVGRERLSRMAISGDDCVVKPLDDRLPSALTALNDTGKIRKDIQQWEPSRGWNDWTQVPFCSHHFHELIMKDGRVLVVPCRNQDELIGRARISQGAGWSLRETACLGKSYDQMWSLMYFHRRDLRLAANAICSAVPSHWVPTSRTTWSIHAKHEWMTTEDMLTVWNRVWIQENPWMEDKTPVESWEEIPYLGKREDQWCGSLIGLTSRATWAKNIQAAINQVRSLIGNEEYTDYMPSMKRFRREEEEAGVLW

[8] = biological target: T4, Histone-lysine N-methyltransferase NSD2 (Homo sapiens, UniProt O96028); type: biochemical
T4 sequence (O96028 whole entry): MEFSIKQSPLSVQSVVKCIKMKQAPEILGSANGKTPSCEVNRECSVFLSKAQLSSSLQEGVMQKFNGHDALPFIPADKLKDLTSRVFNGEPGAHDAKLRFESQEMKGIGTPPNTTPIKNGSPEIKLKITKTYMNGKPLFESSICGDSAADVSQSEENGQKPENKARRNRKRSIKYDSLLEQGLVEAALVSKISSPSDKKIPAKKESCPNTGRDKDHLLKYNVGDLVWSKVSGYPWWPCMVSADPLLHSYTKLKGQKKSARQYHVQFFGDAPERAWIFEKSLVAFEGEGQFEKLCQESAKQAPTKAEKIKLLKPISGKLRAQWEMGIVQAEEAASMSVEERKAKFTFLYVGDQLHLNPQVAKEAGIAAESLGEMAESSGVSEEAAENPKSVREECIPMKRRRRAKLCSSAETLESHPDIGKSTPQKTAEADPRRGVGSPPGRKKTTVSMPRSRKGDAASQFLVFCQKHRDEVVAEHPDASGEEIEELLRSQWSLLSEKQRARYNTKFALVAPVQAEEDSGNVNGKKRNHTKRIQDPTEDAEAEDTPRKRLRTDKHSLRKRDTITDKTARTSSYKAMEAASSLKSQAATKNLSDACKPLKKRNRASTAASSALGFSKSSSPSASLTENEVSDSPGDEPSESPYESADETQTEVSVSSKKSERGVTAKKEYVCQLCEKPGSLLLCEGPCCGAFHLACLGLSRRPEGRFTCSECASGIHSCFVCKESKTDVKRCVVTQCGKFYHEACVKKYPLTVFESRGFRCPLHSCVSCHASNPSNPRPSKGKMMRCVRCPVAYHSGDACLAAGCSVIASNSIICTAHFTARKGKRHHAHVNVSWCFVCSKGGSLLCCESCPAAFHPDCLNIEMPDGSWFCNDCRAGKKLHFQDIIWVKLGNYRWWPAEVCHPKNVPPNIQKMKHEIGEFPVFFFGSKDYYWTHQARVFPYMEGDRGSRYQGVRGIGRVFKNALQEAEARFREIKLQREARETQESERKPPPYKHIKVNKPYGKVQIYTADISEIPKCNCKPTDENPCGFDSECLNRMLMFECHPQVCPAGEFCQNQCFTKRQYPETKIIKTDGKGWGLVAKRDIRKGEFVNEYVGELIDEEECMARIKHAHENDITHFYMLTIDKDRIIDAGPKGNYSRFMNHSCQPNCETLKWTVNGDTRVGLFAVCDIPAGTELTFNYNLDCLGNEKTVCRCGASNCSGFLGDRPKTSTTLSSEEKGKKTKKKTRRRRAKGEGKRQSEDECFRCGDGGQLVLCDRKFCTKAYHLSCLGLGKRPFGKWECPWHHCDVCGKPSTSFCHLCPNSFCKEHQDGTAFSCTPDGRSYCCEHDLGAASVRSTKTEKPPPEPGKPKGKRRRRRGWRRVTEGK

[9] = biological target: Integrin alpha-L (Mus musculus, UniProt P24063); test: modulators of CD8 T cell-vesicle binding, dose response, powder samples, mouse 2C CD8+ cells (AID 504565); type: functional
[10] = system: T-cell; test: inhibitors of CD8+ T cell–vesicle binding, dose response, mouse 2C CD8+ T cells, flow cytometry (AID 485284); type: functional
[11] = biological target: T5, Coagulation factor XII (Homo sapiens, UniProt P00748); test: Factor XIIa Dose Response Confirmation from Single Well HTS. [Related pubchem assays (depositor defined):AID701]; type: functional
T5 sequence (P00748 whole entry): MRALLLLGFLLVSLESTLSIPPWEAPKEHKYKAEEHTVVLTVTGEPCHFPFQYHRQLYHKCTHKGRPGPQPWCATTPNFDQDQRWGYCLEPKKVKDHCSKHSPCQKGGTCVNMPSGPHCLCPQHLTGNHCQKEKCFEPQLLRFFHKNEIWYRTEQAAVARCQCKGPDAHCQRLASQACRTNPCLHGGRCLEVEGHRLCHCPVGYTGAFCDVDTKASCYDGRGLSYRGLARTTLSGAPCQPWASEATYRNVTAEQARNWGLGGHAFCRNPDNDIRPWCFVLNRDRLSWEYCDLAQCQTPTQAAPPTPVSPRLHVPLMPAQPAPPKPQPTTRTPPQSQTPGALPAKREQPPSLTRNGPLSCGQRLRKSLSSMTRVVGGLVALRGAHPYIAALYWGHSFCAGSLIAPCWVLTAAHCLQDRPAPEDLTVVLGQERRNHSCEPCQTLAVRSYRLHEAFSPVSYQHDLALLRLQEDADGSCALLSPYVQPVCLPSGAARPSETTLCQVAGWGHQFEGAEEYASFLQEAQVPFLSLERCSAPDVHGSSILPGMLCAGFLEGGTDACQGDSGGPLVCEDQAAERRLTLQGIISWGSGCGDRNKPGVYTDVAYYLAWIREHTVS

[12] = biological target: T6, Voltage-gated N-type calcium channel alpha-1B subunit/Amyloid beta A4 precursor protein-binding family A member 1 (Homo sapiens, UniProt Q00975+Q02410); type: protein assay
T6 sequence (Q00975 whole entry): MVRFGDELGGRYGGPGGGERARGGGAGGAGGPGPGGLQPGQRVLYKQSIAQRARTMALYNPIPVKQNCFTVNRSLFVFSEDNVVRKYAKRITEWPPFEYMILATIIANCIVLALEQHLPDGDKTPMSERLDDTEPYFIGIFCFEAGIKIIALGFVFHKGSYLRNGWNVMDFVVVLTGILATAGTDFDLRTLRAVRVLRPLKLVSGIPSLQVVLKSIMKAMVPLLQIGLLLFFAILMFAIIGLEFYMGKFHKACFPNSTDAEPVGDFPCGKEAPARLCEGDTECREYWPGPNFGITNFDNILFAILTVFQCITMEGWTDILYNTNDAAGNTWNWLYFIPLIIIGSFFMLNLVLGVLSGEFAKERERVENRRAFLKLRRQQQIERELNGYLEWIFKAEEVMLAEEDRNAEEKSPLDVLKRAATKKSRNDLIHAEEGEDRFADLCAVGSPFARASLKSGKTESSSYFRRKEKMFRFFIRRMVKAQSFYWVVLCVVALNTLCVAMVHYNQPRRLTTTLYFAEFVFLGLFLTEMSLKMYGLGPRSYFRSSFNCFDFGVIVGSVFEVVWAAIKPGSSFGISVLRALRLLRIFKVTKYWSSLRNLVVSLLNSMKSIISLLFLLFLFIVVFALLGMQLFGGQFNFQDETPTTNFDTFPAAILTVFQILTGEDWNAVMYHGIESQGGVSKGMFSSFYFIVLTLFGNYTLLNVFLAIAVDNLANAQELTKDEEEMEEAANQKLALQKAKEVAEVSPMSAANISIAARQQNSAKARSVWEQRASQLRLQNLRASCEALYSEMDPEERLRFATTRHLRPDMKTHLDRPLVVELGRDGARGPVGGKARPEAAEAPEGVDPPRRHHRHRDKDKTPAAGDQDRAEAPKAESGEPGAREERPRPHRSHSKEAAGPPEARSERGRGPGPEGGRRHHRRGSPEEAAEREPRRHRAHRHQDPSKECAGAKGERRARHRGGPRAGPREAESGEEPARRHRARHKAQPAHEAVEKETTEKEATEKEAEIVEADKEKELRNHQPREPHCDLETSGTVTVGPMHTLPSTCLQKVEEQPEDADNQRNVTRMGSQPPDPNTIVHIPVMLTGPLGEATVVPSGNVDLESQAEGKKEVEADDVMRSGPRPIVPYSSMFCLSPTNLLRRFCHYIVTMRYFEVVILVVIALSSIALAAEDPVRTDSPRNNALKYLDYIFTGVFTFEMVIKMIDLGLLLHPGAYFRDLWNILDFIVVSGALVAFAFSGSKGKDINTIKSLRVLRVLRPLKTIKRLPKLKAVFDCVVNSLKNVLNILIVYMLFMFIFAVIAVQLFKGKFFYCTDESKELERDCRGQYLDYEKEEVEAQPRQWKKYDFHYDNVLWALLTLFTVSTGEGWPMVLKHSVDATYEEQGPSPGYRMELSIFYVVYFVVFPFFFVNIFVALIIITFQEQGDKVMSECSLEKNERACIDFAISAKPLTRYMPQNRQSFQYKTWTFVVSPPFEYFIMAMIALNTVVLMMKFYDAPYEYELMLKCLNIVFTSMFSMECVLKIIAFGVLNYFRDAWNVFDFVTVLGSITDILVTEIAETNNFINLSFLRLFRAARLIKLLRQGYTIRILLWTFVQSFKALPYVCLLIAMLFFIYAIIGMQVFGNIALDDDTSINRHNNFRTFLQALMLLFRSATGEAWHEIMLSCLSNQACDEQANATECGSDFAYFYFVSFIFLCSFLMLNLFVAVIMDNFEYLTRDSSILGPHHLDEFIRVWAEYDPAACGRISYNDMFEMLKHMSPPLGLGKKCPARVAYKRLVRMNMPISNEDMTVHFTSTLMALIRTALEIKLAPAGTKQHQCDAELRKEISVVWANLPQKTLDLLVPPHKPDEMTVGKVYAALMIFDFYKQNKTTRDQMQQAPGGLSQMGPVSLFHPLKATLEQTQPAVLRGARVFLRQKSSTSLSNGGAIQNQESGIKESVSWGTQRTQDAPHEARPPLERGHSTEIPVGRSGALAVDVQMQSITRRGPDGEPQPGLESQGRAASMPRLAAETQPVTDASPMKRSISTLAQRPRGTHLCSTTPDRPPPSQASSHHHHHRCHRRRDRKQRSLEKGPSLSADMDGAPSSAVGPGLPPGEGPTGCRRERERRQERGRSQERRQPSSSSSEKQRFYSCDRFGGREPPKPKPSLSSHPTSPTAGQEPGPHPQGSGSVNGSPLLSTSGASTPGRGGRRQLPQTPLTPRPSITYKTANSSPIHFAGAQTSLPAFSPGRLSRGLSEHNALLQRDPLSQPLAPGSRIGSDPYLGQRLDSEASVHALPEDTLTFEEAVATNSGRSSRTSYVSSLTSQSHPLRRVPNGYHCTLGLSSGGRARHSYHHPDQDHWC
T6 sequence (Q02410 whole entry): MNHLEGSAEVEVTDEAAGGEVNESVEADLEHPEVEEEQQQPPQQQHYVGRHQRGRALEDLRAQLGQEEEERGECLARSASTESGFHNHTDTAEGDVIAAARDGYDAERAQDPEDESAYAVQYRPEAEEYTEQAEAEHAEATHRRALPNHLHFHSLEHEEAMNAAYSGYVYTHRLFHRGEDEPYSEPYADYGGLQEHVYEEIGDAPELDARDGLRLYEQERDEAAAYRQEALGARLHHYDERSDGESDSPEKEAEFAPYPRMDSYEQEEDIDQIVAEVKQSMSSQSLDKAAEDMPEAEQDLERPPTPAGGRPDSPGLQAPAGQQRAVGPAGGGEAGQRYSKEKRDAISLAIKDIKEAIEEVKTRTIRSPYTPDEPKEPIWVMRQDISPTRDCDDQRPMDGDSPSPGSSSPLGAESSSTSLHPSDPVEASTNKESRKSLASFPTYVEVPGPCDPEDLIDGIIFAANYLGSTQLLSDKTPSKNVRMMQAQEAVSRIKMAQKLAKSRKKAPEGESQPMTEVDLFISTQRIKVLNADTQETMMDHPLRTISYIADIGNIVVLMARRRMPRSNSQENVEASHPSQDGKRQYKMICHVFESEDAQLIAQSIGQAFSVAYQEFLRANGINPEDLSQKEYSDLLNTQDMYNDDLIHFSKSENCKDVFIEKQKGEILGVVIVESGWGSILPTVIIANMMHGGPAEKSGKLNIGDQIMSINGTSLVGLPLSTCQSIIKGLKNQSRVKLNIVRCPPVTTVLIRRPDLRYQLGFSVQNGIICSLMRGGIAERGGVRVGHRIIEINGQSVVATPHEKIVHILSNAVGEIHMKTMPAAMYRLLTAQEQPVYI

[13] = biological target: T6, Voltage-gated N-type calcium channel alpha-1B subunit/Amyloid beta A4 precursor protein-binding family A member 1; type: protein assay; remark: listed apart in the source
[14] = biological target: Bifunctional protein GlmU (Mycobacterium tuberculosis, UniProt P9WMN3); test: Inhibitors of Mycobacterial Glucosamine-1-phosphate acetyl transferase (GlmU). Secondary screen.; design: species or system Mycobacterium tuberculosis H37Rv
Sequence of Bifunctional protein GlmU (P9WMN3 whole entry): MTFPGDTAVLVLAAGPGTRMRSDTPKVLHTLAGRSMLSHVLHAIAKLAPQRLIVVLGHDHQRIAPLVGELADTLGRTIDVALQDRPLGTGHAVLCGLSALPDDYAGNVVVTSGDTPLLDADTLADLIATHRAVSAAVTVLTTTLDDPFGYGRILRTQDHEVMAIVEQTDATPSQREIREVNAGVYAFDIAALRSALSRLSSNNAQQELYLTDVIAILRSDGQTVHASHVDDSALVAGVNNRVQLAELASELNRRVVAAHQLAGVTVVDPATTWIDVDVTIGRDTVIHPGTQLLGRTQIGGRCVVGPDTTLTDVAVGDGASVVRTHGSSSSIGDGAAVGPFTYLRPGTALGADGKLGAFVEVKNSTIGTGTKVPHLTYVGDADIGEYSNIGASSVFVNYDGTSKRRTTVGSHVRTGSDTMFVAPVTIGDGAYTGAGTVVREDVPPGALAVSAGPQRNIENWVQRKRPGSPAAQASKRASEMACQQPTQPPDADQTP

[15] = biological target: Induced myeloid leukemia cell differentiation protein Mcl-1 (Homo sapiens, UniProt Q07820); type: functional
[16] = biological target: T7, Mannose-6-phosphate isomerase (Homo sapiens, UniProt P34949); test: human PMI inhibitors, high substrate, primary screen, biochemical, fluorescence intensity, high mannose 6-phosphate (AID 1220)
T7 sequence (P34949 whole entry): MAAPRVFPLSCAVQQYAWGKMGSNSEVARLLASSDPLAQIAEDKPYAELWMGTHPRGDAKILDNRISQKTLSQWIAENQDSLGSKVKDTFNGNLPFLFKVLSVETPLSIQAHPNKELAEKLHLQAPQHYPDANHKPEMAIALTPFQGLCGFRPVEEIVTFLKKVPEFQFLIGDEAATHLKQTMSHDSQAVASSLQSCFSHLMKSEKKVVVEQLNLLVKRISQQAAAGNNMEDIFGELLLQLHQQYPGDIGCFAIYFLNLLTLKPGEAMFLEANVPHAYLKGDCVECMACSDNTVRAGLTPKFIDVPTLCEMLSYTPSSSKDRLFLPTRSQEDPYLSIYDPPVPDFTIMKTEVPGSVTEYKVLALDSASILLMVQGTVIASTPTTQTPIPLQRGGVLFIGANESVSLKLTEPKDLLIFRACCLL

[17] = biological target: Glucose-6-phosphate 1-dehydrogenase (Homo sapiens, UniProt P11413); test: human G6PD enzyme inhibitors, dose response, selectivity assay for P. falciparum G6PD inhibitor project, biochemical, fluorescence (AID 504792); type: functional
[18] = biological target: Eukaryotic translation initiation factor 4E (Mus musculus, UniProt P63073); test: eIF4E–eIF4G protein interaction inhibitors, dose response, biochemical, TR-FRET (AID 855); type: functional;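 also: potency for disrupting eIF4E binding to eIF4GI seen as loss of FRET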

Cc1ccc(NC(=O)Nc2ccc(S(N)(=O)=O)cc2)cc1
IC50 [1]: 47.6 µM (active)

Nc1nc(-c2cccc(Br)c2)cs1
EC50 [2]: 31.8 µM (inactive) | EC50 [3]: 49.3 µM (inactive)

CC(C)C1Nc2ccc(C(=O)O)cc2C2C=CCC21 (stereo unspecified)
IC50 [4]: 21.8 µM (active) | IC50 [5]: 16.2 µM (active) | CC50 [6]: > 40 µM (active) | IC50 [7]: 38.7 µM (active) | AC50 [8]: > 20 µM (inactive)

Cc1cc(Cl)c(OCCCSc2nc(C)cc(O)n2)c(Br)c1
EC50 [9]: 17.1 µM (active) | EC50 [10]: 56.6 µM (inactive)

Cc1cc(NC(=O)COC(=O)c2c(C)nn(Cc3ccccc3)c2C)no1
IC50 [11]: > 50 µM (inactive)

Oc1ccc(/C=N/N=C(c2ccccc2)c2ccccc2)c(O)c1O
IC50 [12]: 10.8 µM (active) | IC50 [13]: 3.27 µM (active) | IC50 [14]: 19.3 µM (active) | IC50 [15]: 4.44 µM (active) | IC50 [16]: 12.1 µM (active) | IC50 [17]: 79.2 µM (inactive) | IC50 [18]: > 64 µM (inactive) | CC50 [6]: 31.3 µM (active) | IC50 [7]: 23.4 µM (active) | AC50 [8]: 0.635 µM (active)
